Common to all, as to test: growth of human tumour cells (NCI), 48 h
For test [1], the system named is SK-MEL-5 melanoma.
In test [2] the test system is T-47D breast.
Test [3] relates to HCT-116 colon.
The subject of test [4] is UACC-257 melanoma.
Test [5] concerns OVCAR-8 ovarian.
For test [6], the system named is ACHN renal.
The subject of test [7] is DU-145 prostate.
In test [8] the test system is LOX IMVI melanoma.
Test [9] relates to CAKI-1 renal.
Test [10] has as its system IGROV1 ovarian.

Several values for one entry are separate records, joined by “and”; a condition that tells them apart may be missing. Equal entries are not always repeated.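 In this assay, cells in 96-well plates receive the compound at five concentrations for 48 hours. Endpoints are linearly interpolated between the surrounding concentrations. GI50 is the concentration that inhibits growth by half. The concentration for full growth arrest is given as TGI.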 A value given as a limit tells only on which side of the number the result lay.

Take `CN(C)CCn1cc(-c2ccc3c(Nc4ccc(CC(=O)Nc5cccc(F)c5)cc4)ncnc3c2)cn1`: the GI50 in test [1] is more than 10 µM; in [2] it was 1.41 µM; in test [3] it was 1.26 µM; in [4], 1.84 µM; in [5], 1.6 µM; in test [6], 4.24 µM. In addition, the GI50 in [7] is 1.67 µM; in test [8], 1.33 µM; in [9], 1.24 µM; in test [10], 2.01 µM. Moreover, the TGI in test [1] is more than 10 µM; in test [2], 4.54 µM; in test [3], 2.72 µM; in [4], 5.68 µM; in test [5] it was 6.39 µM; in [6], more than 10 µM. Further, the TGI came out at 3.51 µM in [7], 3.02 µM in test [8], 3.4 µM in test [9] and 6.41 µM in test [10].

As for `Cc1ccc(Cl)cc1Nc1nc(C(F)(F)F)ccc1C(=O)Oc1ccc(Cl)cc1`, the GI50 in test [1] is 7.01 µM; in [2] it was 6.53 µM; in [3] it was 4.45 µM; in test [4], 39.3 µM; in test [5] it was 7.62 µM; in test [6], 5.16 µM. Moreover, the GI50 in test [7] is 7.73 µM; in test [8], 5.21 µM; in test [9] it was 3.31 µM; in [10] it was 11.1 µM. The TGI in test [1] is 26.8 µM; in test [2], 42.2 µM; in test [3], 20 µM; in test [4], more than 100 µM; in test [5], 29 µM; in test [6], 18 µM. Also, the TGI in test [7] is 24.8 µM; in test [8], 21.9 µM; in test [9] it was 13.2 µM; in test [10], more than 100 µM.

Consider `O=Cc1ccc(C(F)(F)F)cc1.[C-]#[O+].[C-]#[O+].[C-]#[O+].[Cr]`, for which the GI50 was 12.6 µM in test [1]; 14.4 µM in test [2]; 16.7 µM in [3]; 58.2 µM in test [4]; 25.3 µM in test [5]; 30.2 µM in test [6]. Also, the GI50 in [7] was 20.9 µM; in test [8] it was 26.2 µM; in test [9], 24.6 µM; in [10], 18.7 µM. Further, the TGI is 28.3 µM in [1]; 62.4 µM in [2]; 38.7 µM in test [3]; more than 100 µM in test [4]; more than 100 µM in test [5]; more than 100 µM in test [6]. The TGI in test [7] is 94.9 µM; in test [8] it was more than 100 µM; in test [9], more than 100 µM; in [10], more than 100 µM.

Take `NC(=O)NC(=O)CI`: the GI50 was 12.9 µM in test [1]; 1.72 µM in [2]; 1.39 µM in test [3]; 3.96 µM in test [4]; 3.23 µM in [5]; 1.78 µM in test [6]. Besides, the GI50 in test [7] is 17.7 µM; in test [8], 1.08 µM; in [9], 2.32 µM; in test [10], 3.67 µM. Further, the TGI in [1] came to 26.4 µM; in [2], 3.9 µM; in [3], 3.12 µM; in [4], 13.4 µM; in test [5], 11.9 µM; in [6], 3.39 µM. Besides, the TGI in test [7] was 32.3 µM; in [8], 2.71 µM; in test [9], 5.51 µM; in [10], 11.5 µM.

As for `CNCCNc1nc2ccccc2c2c(=O)c3cccc(OC)c3sc12`, the GI50 in test [1] is 1.65 µM; in test [2] it was 1.57 µM; in test [3] it was 0.547 µM; in test [4], 1.78 µM; in test [5], 1.15 µM; in test [6], 1.01 µM. The GI50 in test [7] is 1.49 µM; in test [8], 1.27 µM; in test [9], 1.32 µM; in test [10] it was 1 µM. In addition, the TGI in test [1] was 3.04 µM; in test [2] it was 3.56 µM; in test [3], 1.86 µM; in test [4], 3.67 µM; in test [5], 2.8 µM; in test [6], 2.3 µM. Further, the TGI in test [7] is 2.95 µM; in test [8] it was 2.63 µM; in [9], 2.71 µM; in [10], 2.44 µM.

Take `Cn1c(=O)c(F)c(Nc2ccc(I)cc2F)c2c(=O)n(C[C@@H](O)CO)cnc21`: the GI50 is < 0.0268 µM and 0.0448 µM in test [1]; 18.2 µM in test [2]; < 0.01 µM and 0.00832 µM in test [3]; < 0.01 µM and 0.00301 µM in test [4]; 7.91 µM in test [5]; 2.17 µM and 0.48 µM in [6]. Further, the GI50 in test [8] was 0.0469 µM and 0.0198 µM; in [9] it was 0.649 µM and 0.139 µM; in test [10] it was 0.106 µM and 0.0179 µM. In addition, the TGI in [1] is 17.9 µM and > 3.46 µM; in [2], more than 96.5 µM; in test [3], 11.5 µM; in test [4] it was < 0.01 µM and 0.0262 µM; in test [5], more than 100 µM; in [6] it was 40.8 µM and > 6.49 µM. In addition, the TGI in [7] is more than 100 µM; in test [8] it was 12.5 µM and > 3.38 µM; in [9] it was more than 90 µM; in test [10] it was 20.8 µM.

Consider `N#C/C(=C/N1CCN(C(=O)c2ccco2)C1=S)C(N)=O`, for which the GI50 is 16.5 µM in test [1]; 9.32 µM in test [2]; 21.2 µM in [3]; 23.3 µM in test [4]; 43.7 µM in [5]; 11.8 µM in test [6]. Also, the GI50 is 29.8 µM in test [7], 2.5 µM in test [8], 11.8 µM in test [9] and 24 µM in test [10]. For the same compound, the TGI was 38.9 µM in test [1]; more than 100 µM in test [2]; 92.9 µM in test [3]; 50.8 µM in [4]; more than 100 µM in test [5]; 38.8 µM in [6]. Besides, the TGI is more than 100 µM in test [7], 7.69 µM in test [8], 34.4 µM in [9] and 86.8 µM in [10].

For the compound `CCCCOC(=O)N[C@H]1CCc2cc(OC)c(OC)c(OC)c2-c2ccc(SC)c(=O)cc21`, the TGI in [1] was less than 0.01 µM; in test [2], 58.7 µM; in [3], 1.18 µM; in test [4], 31.4 µM; in test [5], 12.7 µM; in test [6] it was 13.1 µM. Moreover, the TGI in [7] is less than 0.01 µM; in test [8], 20.9 µM; in test [9], 25.6 µM; in test [10] it was 92.5 µM.

Take `CC1=C(C)C(=O)C(C(C)C2=C(C)C(=O)C(C)=C(C)C2=O)=C(C)C1=O`: the GI50 in [1] was 12.5 µM; in test [2], 12.8 µM; in test [3] it was 10.8 µM; in [4] it was 33.5 µM; in test [5], 33.3 µM; in test [6] it was 24.5 µM. Also, the GI50 was 35.5 µM in test [7], 19 µM in test [8], 28.6 µM in [9] and 48.9 µM in test [10]. Also, the TGI in [1] is 64.6 µM; in [2], 26.4 µM; in test [3], 24.8 µM; in test [4], more than 100 µM; in test [5], more than 100 µM; in [6], more than 100 µM. The TGI in test [7], in test [8], in [9] and in [10] was more than 100 µM in each case.

In the case of `O=C(CC1C(=O)Nc2ccccc2S1=O)Nc1cccc(Cl)c1` (centres undefined), the TGI was more than 46.1 µM in test [1]; 42.7 µM in [2]; more than 67.3 µM in [3]; more than 100 µM in test [4]; more than 71.9 µM in test [5]; more than 100 µM in [6]. For the same compound, the TGI was more than 100 µM in test [7], more than 100 µM in test [8], 55.3 µM in [9] and more than 67.1 µM in [10].

On to `CC1SC(c2cccs2)N(NC(=O)C(O)c2ccccc2)C1=O` (centres undefined), for which the GI50 in [1], in [2], in [3], in [4], in [5] and in test [6] was more than 100 µM in each case. Also, the GI50 in [7], in test [8], in test [9] and in [10] was more than 100 µM each time. Further, the TGI in test [1], in test [2], in test [3], in test [4], in test [5] and in [6] was more than 100 µM throughout. The TGI in [7], in test [8], in [9] and in test [10] was more than 100 µM throughout.

For `CC(C)(C)NNc1c([N+](=O)[O-])cnn(-c2ccccc2)c1=O`, the TGI in test [1] came to 11.1 µM; in test [2] it was 4.36 µM; in [3], 5.63 µM; in [4] it was 11.4 µM; in [5] it was 4.74 µM; in test [6], 16.4 µM. For the same compound, the TGI was found to be 26 µM in test [7], 3.32 µM in test [8], 21.1 µM in test [9] and 38.6 µM in [10].

The record behind these values is PubChem BioAssay (NCI).
